Results: patent US20240286998A1, “F[…], ANALOGUES THEREOF, AND METHODS USING SAME” (Saint Joseph's University, priority 2021, published 2024)
pEC50: −log10 of the molar value.

Test system: not given
Assay: not given
Details: not given

| Structure (SMILES) | melting point |
| --- | --- |
| CN1CCC[C@@H]1Cc1c[nH]c2ccc(F)cc12 [compound 28, (R)-5-fluoro-3-((1-methylpyrrolidin-2-yl)methyl)-1H-indole] | 127.6 to 131.7 °C |
| CCN(CCc1c[nH]c2ccc(F)cc12)C1CCC1 [compound 31, N-ethyl-N-(2-(5-fluoro-1H-indol-3-yl)ethyl)cyclobutanamine] | 89.4 to 90.3 °C |

Test system: C57BL/6J mice
Assay: Head-Twitch Response (HTR) in mice
Type: in vivo
Details: C57BL/6J mice, ascending and descending arm dose
Experimental: Male C57BL/6J mice (6-8 weeks old) were obtained from Jackson Laboratories (Bar Harbor, ME) and housed in a vivarium at the University of California San Diego, an AAALAC-approved animal facility that meets all federal and state requirements for care and treatment of laboratory animals. All animal experiments were carried out in accordance with NIH guidelines and were approved by the UCSD Institutional Animal Care and Use Committee. Mice were housed up to four per cage in a climate-controlled room on a reverse-light cycle (lights on at 1900 h, off at 0700 h). Animals were provided with ad libitum access to food and water, with the exception of during behavioral testing.
Testing was conducted between 1000 and 1800 h. Head movements were recorded using a head-mounted magnet and a magnetometer coil as described in Halberstadt et al. (Psychopharmacology, 2013, 227(4):727-739). For the head mounted magnet, mice were anesthetized, an incision was made in the scalp, and a neodymium magnet was attached to the dorsal surface of the cranium using dental cement. Following a 2-week recovery period, behavioral experiments were conducted in a well-lit room. At least 7 days occurred between sessions to avoid any carryover effects. Test substances (i.e., dimethyltryptamine (DMT), diethyltryptamine (DET), psilocybin, 6-fluoro-diethyltryptamine (6-F-DET), compounds 3-4, 6, 9, 12-13, 22, 33, 41, 69, 88, 166, and 178) were administered intraperitoneally (IP) at a volume of 5 mL/kg. Mice were treated with vehicle (saline) or 6 doses of the test compound and then placed in a glass cylinder surrounded by a magnetometer coil and tested for 30 min. Coil voltage was filtered (1 kHz lowpass), digitized (20 kHz sampling rate) and saved to disk using a Powerlab/8SP with LabChart v 7.3.2 (ADInstruments, Colorado Springs, CO).
The entire 30 min recordings were examined for head twitches. Established procedures based on artificial intelligence were used to identify head twitches in the recordings (Scientific Reports, 2020, 10(1):1-12). HTR counts were analyzed using one-way analyses of variance (ANOVA), followed by post hoc pairwise comparisons between individual groups and vehicle using Dunnett's multiple comparisons test. […] Median effective doses (ED50 values) and 95% confidence intervals (95% CI) were calculated using nonlinear regression (Prism 9.0.2, GraphPad Software, San Diego, CA) (Table 4 and FIGS. 1-3).

| Structure (SMILES) | Duration of HTR above baseline |
| --- | --- |
| CN(C)CCc1c[nH]c2ccccc12 [DMT, dimethyl tryptamine, reference compound] | about 10 minutes |
| CN(C)CCc1c[nH]c2cccc(O)c12 [psilocin, reference compound] | about 35 minutes |

Biological target: 5-HT1A (Homo sapiens (Human), UniProt P08908)
Assay: 5-HT1A Gi/o-mediated cAMP inhibition, GloSensor assay
Type: cell-based
Details: not given

| Structure (SMILES) | pEC50 |
| --- | --- |
| CN1CCC[C@@H]1Cc1c[nH]c2ccc(F)cc12 [compound 28, (R)-5-fluoro-3-((1-methylpyrrolidin-2-yl)methyl)-1H-indole] | 7.14 |
| CCN(CCc1c[nH]c2ccc(F)cc12)C1CCC1 [compound 31, N-ethyl-N-(2-(5-fluoro-1H-indol-3-yl)ethyl)cyclobutanamine] | 7.65 |

Same assay, conditions: cAMP inhibition, 0.2 μM isoproterenol; IA = Inactive

| Structure (SMILES) | 5-HT1A-cAMP Emax (% 5-HT) |
| --- | --- |
| CN1CCC[C@@H]1Cc1c[nH]c2ccc(F)cc12 [compound 28, (R)-5-fluoro-3-((1-methylpyrrolidin-2-yl)methyl)-1H-indole] | 101.20 ± 1.7 % 5-HT |
| CCN(CCc1c[nH]c2ccc(F)cc12)C1CCC1 [compound 31, N-ethyl-N-(2-(5-fluoro-1H-indol-3-yl)ethyl)cyclobutanamine] | 100.7 ± 1.8 % 5-HT |

Biological target: 5-HT2C (Homo sapiens (Human), UniProt P28335)
Sequence (P28335 whole entry, looked up): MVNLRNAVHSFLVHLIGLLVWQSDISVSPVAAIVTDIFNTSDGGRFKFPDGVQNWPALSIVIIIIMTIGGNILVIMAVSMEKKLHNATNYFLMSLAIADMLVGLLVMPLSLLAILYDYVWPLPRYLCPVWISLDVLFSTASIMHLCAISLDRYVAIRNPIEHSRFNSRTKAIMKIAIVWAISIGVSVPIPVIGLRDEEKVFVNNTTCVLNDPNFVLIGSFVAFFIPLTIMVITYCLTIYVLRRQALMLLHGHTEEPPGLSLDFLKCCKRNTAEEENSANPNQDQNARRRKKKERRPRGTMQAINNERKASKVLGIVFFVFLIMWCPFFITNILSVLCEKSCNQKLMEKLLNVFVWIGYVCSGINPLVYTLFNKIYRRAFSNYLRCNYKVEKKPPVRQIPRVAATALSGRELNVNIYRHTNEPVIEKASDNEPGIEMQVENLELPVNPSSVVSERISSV
Assay: 5-HT2C Gq-mediated calcium flux functional assay
Type: cell-based
Details: not given

| Structure (SMILES) | pEC50 |
| --- | --- |
| CN1CCC[C@@H]1Cc1c[nH]c2ccc(F)cc12 [compound 28, (R)-5-fluoro-3-((1-methylpyrrolidin-2-yl)methyl)-1H-indole] | 8.76 |
| CCN(CCc1c[nH]c2ccc(F)cc12)C1CCC1 [compound 31, N-ethyl-N-(2-(5-fluoro-1H-indol-3-yl)ethyl)cyclobutanamine] | 7.24 |

Same assay, conditions: IA = Inactive; N=1-3

| Structure (SMILES) | 5-HT2C-Ca2+ FLUX Emax (% 5-HT) |
| --- | --- |
| CN1CCC[C@@H]1Cc1c[nH]c2ccc(F)cc12 [compound 28, (R)-5-fluoro-3-((1-methylpyrrolidin-2-yl)methyl)-1H-indole] | 92.8 ± 0.9 % 5-HT |
| CCN(CCc1c[nH]c2ccc(F)cc12)C1CCC1 [compound 31, N-ethyl-N-(2-(5-fluoro-1H-indol-3-yl)ethyl)cyclobutanamine] | 98.0 ± 1.9 % 5-HT |

Biological target: 5-HT2A (Homo sapiens (Human), UniProt P28223)
Assay: 5-HT2A Gq-mediated calcium flux functional assay
Type: cell-based
Details: not given

| Structure (SMILES) | pEC50 |
| --- | --- |
| CN1CCC[C@@H]1Cc1c[nH]c2ccc(F)cc12 [compound 28, (R)-5-fluoro-3-((1-methylpyrrolidin-2-yl)methyl)-1H-indole] | 8.63 |
| CCN(CCc1c[nH]c2ccc(F)cc12)C1CCC1 [compound 31, N-ethyl-N-(2-(5-fluoro-1H-indol-3-yl)ethyl)cyclobutanamine] | 8.69 |

Same assay, conditions: IA = Inactive; N=1-3

| Structure (SMILES) | 5-HT2A-Ca2+ FLUX Emax (% 5-HT) |
| --- | --- |
| CN1CCC[C@@H]1Cc1c[nH]c2ccc(F)cc12 [compound 28, (R)-5-fluoro-3-((1-methylpyrrolidin-2-yl)methyl)-1H-indole] | 91.1 ± 2.5 % 5-HT |
| CCN(CCc1c[nH]c2ccc(F)cc12)C1CCC1 [compound 31, N-ethyl-N-(2-(5-fluoro-1H-indol-3-yl)ethyl)cyclobutanamine] | 104.5 ± 1.8 % 5-HT |

Biological target: Serotonin 5-HT2A (human) (Homo sapiens (Human), UniProt P28223)
Assay: 5-HT2A receptor binding, [3H]-ketanserin competition in membrane fractions
Details: 1 nM [3H]-ketanserin, Cheng-Prusoff, N=1-3

| Structure (SMILES) | 5-HT2A pKi ± SEM |
| --- | --- |
| CN1CCC[C@@H]1Cc1c[nH]c2ccc(F)cc12 [compound 28, (R)-5-fluoro-3-((1-methylpyrrolidin-2-yl)methyl)-1H-indole] | 7.19 ± 0.03 |
| CCN(CCc1c[nH]c2ccc(F)cc12)C1CCC1 [compound 31, N-ethyl-N-(2-(5-fluoro-1H-indol-3-yl)ethyl)cyclobutanamine] | 6.26 ± 0.32 |

Biological target: 5-HT2B (Homo sapiens (Human), UniProt P41595)
Sequence (P41595 whole entry): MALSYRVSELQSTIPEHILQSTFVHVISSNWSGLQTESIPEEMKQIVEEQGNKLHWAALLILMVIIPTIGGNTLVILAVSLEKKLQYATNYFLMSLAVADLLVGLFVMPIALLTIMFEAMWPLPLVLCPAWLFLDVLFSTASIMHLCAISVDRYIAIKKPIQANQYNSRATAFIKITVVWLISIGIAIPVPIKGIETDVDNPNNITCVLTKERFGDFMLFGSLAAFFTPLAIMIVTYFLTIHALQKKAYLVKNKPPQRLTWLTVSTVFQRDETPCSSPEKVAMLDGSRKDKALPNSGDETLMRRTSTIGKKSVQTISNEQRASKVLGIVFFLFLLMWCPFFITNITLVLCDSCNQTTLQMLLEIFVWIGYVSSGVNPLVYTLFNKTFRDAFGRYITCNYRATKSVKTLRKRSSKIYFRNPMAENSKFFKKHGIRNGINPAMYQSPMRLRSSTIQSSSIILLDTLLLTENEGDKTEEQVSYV
Assay: 5-HT2B Gq-mediated calcium flux functional assay
Type: cell-based
Details: not given

| Structure (SMILES) | pEC50 |
| --- | --- |
| CN1CCC[C@@H]1Cc1c[nH]c2ccc(F)cc12 [compound 28, (R)-5-fluoro-3-((1-methylpyrrolidin-2-yl)methyl)-1H-indole] | 9.14 |
| CCN(CCc1c[nH]c2ccc(F)cc12)C1CCC1 [compound 31, N-ethyl-N-(2-(5-fluoro-1H-indol-3-yl)ethyl)cyclobutanamine] | 8.60 |

Same assay, conditions: IA = Inactive; N=1-3

| Structure (SMILES) | 5-HT2B-Ca2+ FLUX Emax (% 5-HT) |
| --- | --- |
| CN1CCC[C@@H]1Cc1c[nH]c2ccc(F)cc12 [compound 28, (R)-5-fluoro-3-((1-methylpyrrolidin-2-yl)methyl)-1H-indole] | 90.8 ± 1.1 % 5-HT |
| CCN(CCc1c[nH]c2ccc(F)cc12)C1CCC1 [compound 31, N-ethyl-N-(2-(5-fluoro-1H-indol-3-yl)ethyl)cyclobutanamine] | 96.5 ± 1.4 % 5-HT |
